Consider 9 compounds from patent US20250115597A1, “TYK2 INHIBITORS AND COMPOSITIONS AND METHODS THEREOF” (LYNK PHARMACEUTICALS CO. LTD., priority 2021, published 2025).

Each structure is given as a SMILES string. Where two headings read alike, the source gives them in different places.

Series [1] has as its target T1, Ba/F3-FL-TYK2-P760L cells (Homo sapiens, UniProt P29597, P760L, cells depend on it).
T1 construct: BaF3-FL-T2P760L (nM)
As to the kind of experiment: Anti-proliferative assay, Ba/F3-FL-TYK2-P760L cells (Cell-Titer Glo). In kind it is cell-based. The note with it: 72 h, read-out: BaF3-FL-T2P760L IC50. In a few lines:
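Compound exposure ran 72 h at 37 °C in 5% CO2 across nine 3-fold concentrations from a 20 μM top dose, added 24 h after seeding 2000 cells/well.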

Series [2] concerns the target T2, TYK2 (Homo sapiens, UniProt P29597).
T2 construct: purchased Carna Biosciences
As to the kind of experiment: TYK2 kinase activity, microfluidic assay (Caliper EZ Reader II). It is filed as biochemical. The note with it: TYK2 1 nM, 1 mM ATP. As for the experimental part:
Testing for JAK1, JAK2 and TYK2 Kinase Activities
JAK activity was determined in the reaction buffer 50 mM HEPES, 0.01% Brij35, 10 mM MgCl2, 2 mM DTT by a microfluidic assay. The phosphorylation of a FAM labeled peptide substrate was monitored in the Caliper EZ Reader II (Perkin Elmer). The assay condition for each batch of enzyme (Carna Biosciences) was optimized to obtain 10% conversion rate of peptide substrate.
The test compounds were dissolved in DMSO to a stock concentration of 10 mM. Three-fold serially diluted compounds with top concentration of 5 μM were pre-incubated with JAK1, JAK2 or TYK2 for 10 min at ambient temperature. The final DMSO concentration of assay mixture was 1%. […] The reaction was stopped by adding 50 mM EDTA.
The percent inhibition was calculated by the following formula:
[formula] • wherein • Conversion %_max=the conversion rate in the positive well without addition of compound • Conversion %_sample=the conversion rate of test compounds • Conversion %_min=the conversion rate in the well without addition of enzyme
The dose-response (percent inhibition) curve was plotted and IC50 values were determined by GraphPad software.

Series [3] can be described thus: Plasma protein binding by equilibrium dialysis. It is filed as in vitro ADME. Conditions: human plasma, equilibrium dialysis 5 hours at 37° C.; read-out: % Bound (human) (converted). As for the experimental part:
Plasma Protein Binding by Equilibrium Dialysis
Aliquots of test compound stock solution and warfarin stock solution were spiked into plasma to give the matrix solutions with theoretical concentrations of test compound at 0.2 and 2 μM or warfarin at 2 μM. Immediately transfer 50 μL of the spiked plasma solution suspension to a 96-well plate to act as T=0 control sample. Assemble the dialysis set up following the manufacturer's instructions. Load cells with 150 μL of plasma sample and dialyzed against equal volume of dialysis buffer (PBS). The assay is performed in duplicate. Cover the unit with gas permeable lid and incubate for 5 hours at 37° C. at 100 rpm in a constant temperature shaking box. At the end of incubation, remove lid and pipette 50 μL of post-dialysis samples from both buffer and plasma solution chambers into separated 96-well plate for analysis, respectively. Add 50 μL of plasma solution to the buffer samples, and an equal volume of PBS to the collected plasma solution samples. Shake the plate at 1000 rpm for 2 minutes and add 600 μL of 50% ACN/MeOH containing an appropriate internal standard (IS) to precipitate protein and release compound. Vortex at 1000 rpm for 10 minutes. Centrifuge for 10 minutes at 4000 rpm. Then transfer 75 μL of the supernatant to new 96-well plates for analysis. Add 150 μL of distilled water to each sample and mix for analysis by LC-MS/MS.
The free rate (% Unbound), binding rate (% Bound), and recovery rate (% Recovery) of the compound are calculated as follows: […]
For orientation: Equilibrium dialysis compares concentrations on both sides of a semipermeable membrane.

In series [4] the target is T3, TYK2-JH2 domain (Homo sapiens, UniProt P29597).
T3 construct: IC50 on JH2 domain activity (nM)
T3 sequence (P29597 589-875 limits assumed): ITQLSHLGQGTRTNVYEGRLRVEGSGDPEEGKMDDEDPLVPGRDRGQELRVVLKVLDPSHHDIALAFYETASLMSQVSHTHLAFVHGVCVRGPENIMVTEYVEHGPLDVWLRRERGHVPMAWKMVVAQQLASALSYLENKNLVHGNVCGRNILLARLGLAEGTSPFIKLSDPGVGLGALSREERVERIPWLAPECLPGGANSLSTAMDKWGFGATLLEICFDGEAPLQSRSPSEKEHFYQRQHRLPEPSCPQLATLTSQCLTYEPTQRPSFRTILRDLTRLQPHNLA
As to the kind of experiment: Binding activity test for JH2 domain of TYK2 (Tb-antibody/tracer FRET). The note with it: for JAK1/TYK2 selectivity: ratio JAK1-JH2 IC50 / TYK2-JH2 IC50. In a few lines:
(§1)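 FRET read-out after 60 min at 25° C plus overnight at 4° C; tracer displacement detected via Tb-labelled antibody on the JH2 domain. Dose-response used 11 points at 3-fold dilution.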

Series [5] in a line: Microsomal metabolic stability assay. The note with it: pH 7.4, 0.5 mg/mL protein, 1 μM compound. In kind it is in vitro ADME. In a few lines:
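Parent loss was tracked by LC/MS/MS at 0, 5, 15, 30 and 45 min, with half-life derived from the ln(% remaining)–time slope. Incubation at 37 °C, pH 7.4 phosphate/EDTA buffer: 0.5 mg/mL microsomes, 1 μM compound, NADPH-regenerated (2 mM).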

Series [6] is described as follows: Hepatocytes metabolic stability assay. In kind it is in vitro ADME. Conditions: cryopreserved hepatocytes, human hepatocytes, 1.0×10^6 cells/mL. In a few lines: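 Cryopreserved hepatocytes (1.0×10^6 cells/mL final) were incubated with test compound at 1 μM at 37 °C and sampled at 0, 15, 30, 60 and 120 min, with acetonitrile quench and LC-MS/MS. k came from log-linear % remaining versus time, giving T1/2 and CLint.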

The subject of series [7] is pSTAT1. Put plainly: Phosphorylation inhibition of STAT in human whole blood, IFN-alpha stimulated (flow cytometry). It is filed as cell-based. The note with it: 20 min; human whole blood, IFN-alpha 20 mins, CD3 cells; read-out: IC50 on pSTAT1 inhibition in h WB. As for the experimental part:
Phosphorylation Inhibition of STAT in Human PBMC and Human Whole Blood Testing:
The inhibitory potential of test articles in human PBMC and human whole blood assay was evaluated by the method of flow cytometry.
IFN-alpha will activate JAK1 and TYK2 kinase in T cells by binding to IFN receptors, and then lead to phosphorylation of STAT1 and STAT2. The phosphorylated STAT1 enter nuclear and promote transcription and expression of IFN-gamma. To evaluate the efficacy of TYK2i in T cells, freshly prepared human PBMC or freshly collected human whole blood will be stimulated with certain unit of human IFN-alpha (Universal Type I IFN(1MU), R&D, 11200-2) for 20 mins in incubator. After stimulation, fix cells with Phosflow™ Fix Buffer I (BD, 557870), and then collect fixed cells by centrifugation (500 g, 8 min). Wash cells once with pre-cooled PBS, and then permeabilize cells with cold Perm Buffer III buffer (BD, 558050) for 45 mins on ice. Collect cells by centrifugation (600 g, 8 min) and washed twice with cold PBS. Stain cells with anti-human CD3 (FITC Mouse Anti-Human CD3, BD, 555332) and anti-pSTAT1_Y701(Alexa Fluor 647 Mouse Anti-Stat1 (pY701), BD, 612597) antibodies. Detect pSTAT1 by flow cytometry (CytoFlex S) and analyze data with FlowJo and GraphPad Prism 8 software. IC50 values of test articles were determined using 4-parameter logistic equation.
A general note: In flow cytometry, cells or beads pass a laser one at a time.

For series [8], the target named is T4, JAK1-JH2 domain (Homo sapiens, UniProt P23458).
T4 construct: IC50 on JH2 domain activity (nM)
T4 sequence (P23458 583-855 limits assumed): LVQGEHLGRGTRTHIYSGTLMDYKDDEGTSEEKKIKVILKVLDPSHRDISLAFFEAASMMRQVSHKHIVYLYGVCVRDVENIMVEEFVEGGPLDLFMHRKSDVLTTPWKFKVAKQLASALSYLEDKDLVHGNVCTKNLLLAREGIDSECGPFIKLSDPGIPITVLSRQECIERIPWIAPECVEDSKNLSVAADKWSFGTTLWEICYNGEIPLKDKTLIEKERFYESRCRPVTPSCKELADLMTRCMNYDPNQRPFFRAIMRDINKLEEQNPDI
As to the kind of experiment: Binding activity test for JH2 domain of JAK1 (Tb-antibody/tracer FRET). Put shortly: as §1

The mark [9] stands for this setting: dog liver microsomes, read-out: Dog LM Clint.
[10] abbreviates: dog liver microsomes, read-out: Dog LM T½.
[11] abbreviates: human liver microsomes, read-out: Human LM Clint.
[12] abbreviates: human liver microsomes, read-out: Human LM T½.
Setting [13] is: rat liver microsomes, read-out: Rat LM Clint.
Setting [14] is: rat liver microsomes, read-out: Rat LM T½.

T1 sequence (P29597 whole entry P760L): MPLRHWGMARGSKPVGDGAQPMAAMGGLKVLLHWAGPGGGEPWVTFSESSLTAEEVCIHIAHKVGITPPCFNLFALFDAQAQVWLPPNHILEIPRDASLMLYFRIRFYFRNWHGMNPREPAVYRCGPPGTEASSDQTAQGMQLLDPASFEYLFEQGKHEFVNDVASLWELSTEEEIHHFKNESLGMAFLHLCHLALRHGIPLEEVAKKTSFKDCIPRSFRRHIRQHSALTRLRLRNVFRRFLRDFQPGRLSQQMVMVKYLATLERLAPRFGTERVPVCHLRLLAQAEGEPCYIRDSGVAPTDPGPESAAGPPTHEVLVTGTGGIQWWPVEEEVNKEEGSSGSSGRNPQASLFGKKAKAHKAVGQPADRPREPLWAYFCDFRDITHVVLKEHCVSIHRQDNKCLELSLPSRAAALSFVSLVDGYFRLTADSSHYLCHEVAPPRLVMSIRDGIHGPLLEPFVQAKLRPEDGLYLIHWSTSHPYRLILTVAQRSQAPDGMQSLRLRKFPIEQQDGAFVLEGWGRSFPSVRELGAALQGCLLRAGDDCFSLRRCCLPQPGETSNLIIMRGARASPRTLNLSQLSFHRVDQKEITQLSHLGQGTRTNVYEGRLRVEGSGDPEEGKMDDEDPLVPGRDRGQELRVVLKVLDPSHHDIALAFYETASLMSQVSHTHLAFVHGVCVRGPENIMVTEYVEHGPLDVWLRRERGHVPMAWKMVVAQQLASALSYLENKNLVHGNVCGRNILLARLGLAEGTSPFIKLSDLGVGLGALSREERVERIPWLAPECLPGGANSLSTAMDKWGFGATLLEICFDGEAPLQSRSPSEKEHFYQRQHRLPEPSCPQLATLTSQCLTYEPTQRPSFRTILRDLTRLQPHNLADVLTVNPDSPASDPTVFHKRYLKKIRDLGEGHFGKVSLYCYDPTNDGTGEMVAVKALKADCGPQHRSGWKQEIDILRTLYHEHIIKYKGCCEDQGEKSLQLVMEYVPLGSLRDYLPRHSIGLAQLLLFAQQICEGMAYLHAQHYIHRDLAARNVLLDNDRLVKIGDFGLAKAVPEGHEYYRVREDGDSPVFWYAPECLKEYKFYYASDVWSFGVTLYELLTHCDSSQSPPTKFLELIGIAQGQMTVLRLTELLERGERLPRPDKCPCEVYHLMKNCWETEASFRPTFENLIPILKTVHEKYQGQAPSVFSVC
T2 sequence (P29597 whole entry): as the sequence (P29597 whole entry P760L) above, with L760P counted along it

One may read the IC50 as the concentration that inhibits the measured activity by half. `CNC(=O)c1nnc(NC(=O)C2CC2)cc1Nc1cccc2ccn(C)c(=O)c12` [Example 24, 6-(Cyclopropanecarboxamido)-N-methyl-4-((2-methyl-1-oxo-1,2-dihydroisoquinolin-8-yl)amino)pyridazine-3-carboxamide]: in series [1], the GI50 stood at 1390 nM. Also, the IC50 in series [2] is more than 5 µM.
As for `[2H]C([2H])([2H])NC(=O)c1cnc(NC(=O)C2CC2)cc1Nc1cn(C)c2c(F)cn(CC(F)F)c(=O)c12` [Example 158, 6-(Cyclopropanecarboxamido)-4-((5-(2,2-difluoroethyl)-7-fluoro-1-methyl-4-oxo-4,5-dihydro-1H-pyrrolo[3,2-c]pyridin-3-yl)amino)-N-(methyl-d3)nicotinamide], the fraction unbound at 5 h in series [3] was 0.039. In series [1], the GI50 is 68.4 nM. In addition, in series [4], the IC50 came to 0.948 nM. For the same compound, the figures for the microsomal CLint at 1 μM in series [5] (setting [9]), in series [5] (setting [11]) and in series [5] (setting [13]) were less than 7.4 µL/min/mg, 15.2 µL/min/mg and 26.4 µL/min/mg, respectively. In addition, the figures for the half-life at 1 μM in series [5] (setting [10]), in series [5] (setting [12]) and in series [5] (setting [14]) were more than 186 min, 91.2 min and 52.5 min, respectively.
Take `[2H]C([2H])([2H])NC(=O)c1cnc(NC(=O)C2CC2)cc1Nc1ccc2cnn(C([2H])([2H])C([2H])([2H])[2H])c2c1OC([2H])([2H])[2H]` [Example 134, 6-(Cyclopropanecarboxamido)-4-((1-(ethyl-d5)-7-(methoxy-d3)-1H-indazol-6-yl)amino)-N-(methyl-d3)nicotinamide]: the fraction unbound at 5 h in series [3] was 0.049. Also, in series [1], the GI50 came to 61.4 nM. In addition, the CLint scaled at 1 μM in series [6] (read-out: Human hepatocyte Clint(liver)) is 18 mL/min/kg. Also, in series [6] (read-out: Human hepatocyte stability T1/2), the half-life at 1 μM was determined as 98.2 min.
On to `CCn1ncc2ccc(Nc3cc(NC(=O)C4CC4)ncc3C(=O)NC)c(OC)c21` [Example 228, 6-(Cyclopropanecarboxamido)-4-((1-ethyl-7-methoxy-1H-indazol-6-yl)amino)-N-methylnicotinamide], for which the fraction unbound at 5 h in series [3] is 0.04. Also, in series [1], the GI50 was determined as 29.3 nM. Moreover, the IC50 was found to be 245 nM in series [7], 6.48 nM in series [8] and 0.288 nM in series [4]. Further, the JAK1/TYK2 selectivity in series [4] amounted to 22.5.
For `[2H]C([2H])([2H])NC(=O)c1cnc(NC(=O)C2CC2)cc1Nc1ccn2ncc(CO)c2c1OC` [Example 225, 6-(Cyclopropanecarboxamido)-4-((3-(hydroxymethyl)-4-methoxypyrazolo[1,5-a]pyridin-5-yl)amino)-N-(methyl-d3)nicotinamide], the fraction unbound at 5 h in series [3] was 0.346. Further, the GI50 in series [1] came to 565 nM. Also, the IC50 in series [8] is 15.2 nM. For the same compound, in series [4], the IC50 stood at 0.868 nM and the JAK1/TYK2 selectivity is given as 17.5.
As to `[2H]C([2H])([2H])NC(=O)c1cnc(NC(=O)C2CC2)cc1Nc1nn(C)c2ccn(CC(F)(F)F)c(=O)c12` [Example 53, 6-(Cyclopropanecarboxamido)-N-(methyl-d3)-4-((1-methyl-4-oxo-5-(2,2,2-trifluoroethyl)-4,5-dihydro-1H-pyrazolo[4,3-c]pyridin-3-yl)amino)nicotinamide], the fraction unbound at 5 h in series [3] is 0.286. Further, the GI50 in series [1] was determined as 144 nM. Further, the IC50 in series [4] was determined as 0.293 nM.
For `[2H]C([2H])([2H])NC(=O)c1cnc(NC(=O)C2CC2)cc1Nc1csc2ncn(CC)c(=O)c12` [Example 216, 6-(Cyclopropanecarboxamido)-4-((3-ethyl-4-oxo-3,4-dihydrothieno[2,3-d]pyrimidin-5-yl)amino)-N-(methyl-d3)nicotinamide] the same measures were 0.041, 181 nM and 0.525 nM.
As for `[2H]C([2H])([2H])NC(=O)c1cnc(NC(=O)C2CC2)cc1Nc1ccn2ncc(COC)c2c1OC` [Example 226, 6-(Cyclopropanecarboxamido)-4-((4-methoxy-3-(methoxymethyl)pyrazolo[1,5-a]pyridin-5-yl)amino)-N-(methyl-d3)nicotinamide], the fraction unbound at 5 h in series [3] is 0.126. In addition, the GI50 in series [1] came out at 221 nM. Further, the IC50 stood at 56.5 nM in series [8] and 1.46 nM in series [4]. Further, the JAK1/TYK2 selectivity in series [4] is listed as 38.8.
Regarding `[2H]C([2H])([2H])NC(=O)c1cnc(Nc2cccc(C#N)n2)nc1Nc1cccc(-c2ncn(C)n2)c1OC` [Example 21, 2-[(6-Cyano-2-pyridyl)amino]-4-[2-methoxy-3-(1-methyl-1,2,4-triazol-3-yl)anilino]-N-(trideuteriomethyl)pyrimidine-5-carboxamide], the GI50 in series [1] is 77.5 nM. The same compound came in with a concentration for half-maximal inhibition (IC50) in series [2] of more than 5 µM. Further, the microsomal CLint at 1 μM stood at 26.8 µL/min/mg in series [5] (setting [9]), 6.42 µL/min/mg in series [5] (setting [11]) and 7.4 µL/min/mg in series [5] (setting [13]). Moreover, the half-life at 1 μM in series [5] (setting [10]) turned out to be 51.7 min; in series [5] (setting [12]), 216 min; in series [5] (setting [14]), 187 min.
